Source: patent publication US11135234B2, “Effective aminoglycoside antibiotic for multidrug-resistant bacteria” (MICROBIAL CHEMISTRY RESEARCH FOUNDATION, priority 2015, dated 2021)
Values after ≈ are worked out from the molar mass of the structure shown.

Columns and labels:
[1] = system: E. coli JM109/pMW218; assay: MIC, agar plate dilution method, E. coli JM109/pMW218; format: cell-based, Escherichia coli; details: for minimal inhibitory concentration (MIC): E. coli JM109/pMW218, Sensitive bacterium; for MIC: Escherichia coli, JM109/PMW218, E. coli JM109/pMW218, Sensitive bacterium, read-out: minimal inhibitory concentration (MIC)
Summary of the method: (§1)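 Read-out is the lowest compound concentration inhibiting growth (MIC, μg/mL), obtained by the agar plate dilution procedure of the Japan Society of Chemotherapy.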

[2] = system: P. aeruginosa PAO1/GN315; assay: MIC, agar plate dilution method, P. aeruginosa PAO1/GN315; format: cell-based, Pseudomonas aeruginosa; details: for minimal inhibitory concentration (MIC): P. aeruginosa PAO1/GN315, AMK-resistant; for MIC: Pseudomonas aeruginosa, read-out: minimal inhibitory concentration (MIC), P. aeruginosa PAO1/GN315, AMK-resistant
Summary of the method: as §1

[3] = system: P. aeruginosa PAO1; assay: MIC, agar plate dilution method, P. aeruginosa PAO1; format: cell-based, Pseudomonas aeruginosa; details: for minimal inhibitory concentration (MIC): P. aeruginosa PAO1, Sensitive bacterium; for MIC: Pseudomonas aeruginosa, PAO1, P. aeruginosa PAO1, Sensitive bacterium, read-out: minimal inhibitory concentration (MIC)
Summary of the method: as §1

[4] = system: S. marcescens TH-0447; assay: MIC, agar plate dilution method, S. marcescens TH-0447; format: cell-based, Serratia marcescens; details: for minimal inhibitory concentration (MIC): S. marcescens TH-0447, AMK-resistant; for MIC: Serratia marcescens, TH0447, S. marcescens TH-0447, AMK-resistant, read-out: minimal inhibitory concentration (MIC)
Summary of the method: as §1

[5] = system: E. faecium ATCC19434; assay: MIC, agar plate dilution method, E. faecium ATCC19434; format: cell-based, Enterococcus faecium; details: for minimal inhibitory concentration (MIC): E. faecium ATCC19434; for MIC: Enterococcus faecium, ATCC19434, E. faecium ATCC19434, read-out: minimal inhibitory concentration (MIC)
Summary of the method: as §1

[6] = system: P. aeruginosa MSC17707; assay: MIC, agar plate dilution method, P. aeruginosa MSC17707; format: cell-based, Pseudomonas aeruginosa; details: for minimal inhibitory concentration (MIC): P. aeruginosa MSC17707, AMK-resistant; for MIC: Pseudomonas aeruginosa, MSC17707, P. aeruginosa MSC17707, AMK-resistant, read-out: minimal inhibitory concentration (MIC)
Summary of the method: as §1

[7] = system: S. marcescens GN6944; assay: MIC, agar plate dilution method, S. marcescens GN6944; format: cell-based, Serratia marcescens; details: S. marcescens GN6944, GM-resistant; for MIC: Serratia marcescens, read-out: minimal inhibitory concentration (MIC)
Summary of the method: as §1

[8] = system: P. aeruginosa MSC01035; assay: MIC, agar plate dilution method, P. aeruginosa MSC01035; format: cell-based, Pseudomonas aeruginosa; details: P. aeruginosa MSC01035, ABK-resistant; for MIC: Pseudomonas aeruginosa, read-out: minimal inhibitory concentration (MIC)
Summary of the method: as §1

[9] = system: S. aureus MF490; assay: MIC, agar plate dilution method, S. aureus MF490; format: cell-based, Staphylococcus aureus; details: for minimal inhibitory concentration (MIC): S. aureus MF490, MRSA; for MIC: Staphylococcus aureus, MRSA, read-out: minimal inhibitory concentration (MIC)
Summary of the method: as §1

[10] = system: S. aureus RN4220/pMS520; assay: MIC, agar plate dilution method, S. aureus RN4220/pMS520; format: cell-based, Staphylococcus aureus; details: for minimal inhibitory concentration (MIC): S. aureus RN4220/pMS520, MRSA; for MIC: Staphylococcus aureus, MRSA, read-out: minimal inhibitory concentration (MIC), S. aureus RN4220/pMS520, MRSA
Summary of the method: as §1

[11] = system: K. pneumoniae ATCC BAA-2146; assay: MIC, agar plate dilution method, K. pneumoniae ATCC BAA-2146; format: cell-based, Klebsiella pneumoniae; details: for minimal inhibitory concentration (MIC): K. pneumoniae ATCC BAA-2146, NDM-producing strain; for MIC: Klebsiella pneumoniae, ATCCBAA2146, K. pneumoniae ATCC BAA-2146, NDM-producing strain, read-out: minimal inhibitory concentration (MIC)
Summary of the method: as §1

[12] = system: A. baumannii ATCC BAA-1710; assay: MIC, agar plate dilution method, A. baumannii ATCC BAA-1710; format: cell-based, Acinetobacter baumannii; details: for minimal inhibitory concentration (MIC): A. baumannii ATCC BAA-1710, MDRA; for MIC: Acinetobacter baumannii, ATCCBAA1710, A. baumannii ATCC BAA-1710, MDRA, read-out: minimal inhibitory concentration (MIC)
Summary of the method: as §1

[13] = system: S. aureus RN4220; assay: MIC, agar plate dilution method, S. aureus RN4220; format: cell-based, Staphylococcus aureus; details: for minimal inhibitory concentration (MIC): S. aureus RN4220, Sensitive bacterium; for MIC: Staphylococcus aureus, RN4220, S. aureus RN4220, Sensitive bacterium, read-out: minimal inhibitory concentration (MIC)
Summary of the method: as §1

[14] = system: K. pneumoniae ATCC BAA-1705; assay: MIC, agar plate dilution method, K. pneumoniae ATCC BAA-1705; format: cell-based, Klebsiella pneumoniae; details: for minimal inhibitory concentration (MIC): K. pneumoniae ATCC BAA-1705, KPC-producing strain; for MIC: Klebsiella pneumoniae, ATCCBAA1705, K. pneumoniae ATCC BAA-1705, KPC-producing strain, read-out: minimal inhibitory concentration (MIC)
Summary of the method: as §1

SMILES | minimal inhibitory concentration (MIC) [1] [µg/mL] | minimal inhibitory concentration (MIC) [2] [µg/mL] | minimal inhibitory concentration (MIC) [3] [µg/mL] | minimal inhibitory concentration (MIC) [4] [µg/mL] | minimal inhibitory concentration (MIC) [5] [µg/mL] | minimal inhibitory concentration (MIC) [6] [µg/mL] | minimal inhibitory concentration (MIC) [7] [µg/mL] | minimal inhibitory concentration (MIC) [8] [µg/mL] | minimal inhibitory concentration (MIC) [9] [µg/mL] | minimal inhibitory concentration (MIC) [10] [µg/mL] | minimal inhibitory concentration (MIC) [11] [µg/mL] | minimal inhibitory concentration (MIC) [12] [µg/mL] | minimal inhibitory concentration (MIC) [13] [µg/mL] | minimal inhibitory concentration (MIC) [14] [µg/mL] | also measured
CN[C@@H]1[C@@H](O[C@@H]2C[C@H](O)[C@H](N)[C@@H](CO)O2)O[C@H]2C[C@@H](N)[C@@H](O[C@H]3[C@@H](F)[C@@H](O)[C@H](N)C[C@@H]3N)O[C@@H]2[C@@H]1O [Compound O5, 5,2″-dideoxy-5,3″-diepi-5-fluoroapramycin] | 0.5 (≈ 0.951 µM) | 2 (≈ 3.81 µM) | 2 (≈ 3.81 µM) | 4 (≈ 7.61 µM) | 8 (≈ 15.2 µM) | 4 (≈ 7.61 µM) | 2 (≈ 3.81 µM) | 4 (≈ 7.61 µM) | 4 (≈ 7.61 µM) | 1 (≈ 1.9 µM) | 0.5 (≈ 0.951 µM) | 4 (≈ 7.61 µM) | 1 (≈ 1.9 µM) | 1 (≈ 1.9 µM) | –
CNC1C(OC2OC(CO)C(N)C(O)C2O)OC2CC(N)C(OC3C(N)CC(N)C(O)C3O)OC2C1O (stereo not drawn) [Compound B5, 5-epiapramycin] | 1 (≈ 1.85 µM) | 4 (≈ 7.41 µM) | 4 (≈ 7.41 µM) | 8 (≈ 14.8 µM) | 16 (≈ 29.7 µM) | 4 (≈ 7.41 µM) | 8 (≈ 14.8 µM) | 4 (≈ 7.41 µM) | 8 (≈ 14.8 µM) | 2 (≈ 3.71 µM) | 1 (≈ 1.85 µM) | 8 (≈ 14.8 µM) | 4 (≈ 7.41 µM) | 1 (≈ 1.85 µM) | –
CN[C@@H]1[C@@H](O[C@H]2O[C@H](CO)[C@@H](N)[C@@H](O)[C@H]2O)O[C@H]2C[C@@H](N)[C@@H](O[C@H]3[C@H](O)[C@@H](O)[C@H](N)C[C@@H]3N)O[C@@H]2[C@@H]1O [Compound H3, 3″-epiapramycin] | 2 (≈ 3.71 µM) | 8 (≈ 14.8 µM) | 8 (≈ 14.8 µM) | 8 (≈ 14.8 µM) | 16 (≈ 29.7 µM) | 8 (≈ 14.8 µM) | 8 (≈ 14.8 µM) | 8 (≈ 14.8 µM) | 8 (≈ 14.8 µM) | 4 (≈ 7.41 µM) | 2 (≈ 3.71 µM) | 8 (≈ 14.8 µM) | 4 (≈ 7.41 µM) | 2 (≈ 3.71 µM) | –
CN[C@@H]1[C@@H](O[C@H]2O[C@H](CO)[C@@H](N)[C@H](O)[C@H]2O)O[C@H]2C[C@@H](N)[C@@H](O[C@H]3[C@@H](F)[C@H](N)[C@H](N)C[C@@H]3N)O[C@@H]2[C@@H]1O [Compound F3, 6-amino-5,6-dideoxy-5,6-diepi-5-fluoroapramycin] | 8 (≈ 14.8 µM) | 16 (≈ 29.6 µM) | 16 (≈ 29.6 µM) | 16 (≈ 29.6 µM) | 64 (≈ 118 µM) | 16 (≈ 29.6 µM) | 16 (≈ 29.6 µM) | 32 (≈ 59.2 µM) | 32 (≈ 59.2 µM) | 8 (≈ 14.8 µM) | 4 (≈ 7.4 µM) | 16 (≈ 29.6 µM) | 8 (≈ 14.8 µM) | 4 (≈ 7.4 µM) | –
CNC1C(O[C@H]2OC(CO)[C@@H](NC(=N)N)CC2O)O[C@H]2CC(N)[C@@H](O[C@@H]3C(N)C[C@@H](N)C(O)[C@H]3F)OC2C1O (stereo partly drawn) [Compound X4-b, 4″-deamino-5,3″-dideoxy-5-epi-5-fluoro-4″-guanidinoapramycin] | – | – | – | – | – | – | – | – | – | – | – | – | – | – | MIC [1]: 1 µg/mL (≈ 1.76 µM); MIC [2]: 8 µg/mL (≈ 14.1 µM); MIC [3]: 4 µg/mL (≈ 7.05 µM); MIC [4]: 4 µg/mL (≈ 7.05 µM); MIC [5]: 8 µg/mL (≈ 14.1 µM); MIC [6]: 8 µg/mL (≈ 14.1 µM); MIC [7]: 4 µg/mL (≈ 7.05 µM); MIC [8]: 16 µg/mL (≈ 28.2 µM); MIC [9]: 4 µg/mL (≈ 7.05 µM); MIC [10]: 1 µg/mL (≈ 1.76 µM); MIC [11]: 1 µg/mL (≈ 1.76 µM); MIC [12]: 16 µg/mL (≈ 28.2 µM); MIC [13]: 1 µg/mL (≈ 1.76 µM); MIC [14]: 1 µg/mL (≈ 1.76 µM)
CNC1C(OC2OC(CO)C(N)CC2O)OC2CC(N)C(OC3C(N)CC(N)C(O)C3N)OC2C1O (stereo not drawn) [Compound N9, 5-amino-5,3″-dideoxy-5-epiapramycin] | 1 (≈ 1.91 µM) | 4 (≈ 7.65 µM) | 4 (≈ 7.65 µM) | 8 (≈ 15.3 µM) | 16 (≈ 30.6 µM) | 8 (≈ 15.3 µM) | 8 (≈ 15.3 µM) | 8 (≈ 15.3 µM) | 8 (≈ 15.3 µM) | 2 (≈ 3.83 µM) | 1 (≈ 1.91 µM) | 8 (≈ 15.3 µM) | 2 (≈ 3.83 µM) | 2 (≈ 3.83 µM) | –
CNC1C(O[C@H]2OC(CO)[C@@H](NCCCN)[C@H](O)C2O)O[C@H]2CC(N)[C@@H](O[C@H]3CC[C@H](N)CC3N)OC2C1O (stereo partly drawn) [Compound T2-c, 4″-N-(3-aminopropyl)-5,6-dideoxyapramycin] | – | – | – | – | – | – | – | – | – | – | – | – | – | – | MIC [1]: 1 µg/mL (≈ 1.77 µM); MIC [2]: 4 µg/mL (≈ 7.08 µM); MIC [3]: 4 µg/mL (≈ 7.08 µM); MIC [4]: 8 µg/mL (≈ 14.2 µM); MIC [5]: 8 µg/mL (≈ 14.2 µM); MIC [6]: 4 µg/mL (≈ 7.08 µM); MIC [7]: 4 µg/mL (≈ 7.08 µM); MIC [8]: 8 µg/mL (≈ 14.2 µM); MIC [9]: 8 µg/mL (≈ 14.2 µM); MIC [10]: 2 µg/mL (≈ 3.54 µM); MIC [11]: 1 µg/mL (≈ 1.77 µM); MIC [12]: 4 µg/mL (≈ 7.08 µM); MIC [13]: 2 µg/mL (≈ 3.54 µM); MIC [14]: 1 µg/mL (≈ 1.77 µM)
CNC1C(OC2OC(CO)C(N)CC2O)OC2CC(N)C(OC3C(N)CC(N)C(O)C3F)OC2C1O (stereo not drawn) [Compound M10, 5,3″-dideoxy-5-epi-5-fluoroapramycin] | 0.5 (≈ 0.951 µM) | 4 (≈ 7.61 µM) | 4 (≈ 7.61 µM) | 8 (≈ 15.2 µM) | 8 (≈ 15.2 µM) | 4 (≈ 7.61 µM) | 4 (≈ 7.61 µM) | 4 (≈ 7.61 µM) | 8 (≈ 15.2 µM) | 2 (≈ 3.81 µM) | 1 (≈ 1.9 µM) | 8 (≈ 15.2 µM) | 2 (≈ 3.81 µM) | 1 (≈ 1.9 µM) | –
CNC1C(OC2OC(CO)C(NC(=N)N)CC2O)OC2CC(N)C(OC3CC(O)C(N)CC3N)OC2C1O (stereo not drawn) [Compound U4-a, 4″-deamino-5,3″-dideoxy-4″-guanidinoapramycin] | 0.5 (≈ 0.91 µM) | 4 (≈ 7.28 µM) | 4 (≈ 7.28 µM) | 4 (≈ 7.28 µM) | 4 (≈ 7.28 µM) | 8 (≈ 14.6 µM) | 2 (≈ 3.64 µM) | 8 (≈ 14.6 µM) | 4 (≈ 7.28 µM) | 1 (≈ 1.82 µM) | 0.5 (≈ 0.91 µM) | 8 (≈ 14.6 µM) | 1 (≈ 1.82 µM) | 1 (≈ 1.82 µM) | –
